Data set [1] in a line: Solubility of crystalline forms (supersaturated suspension shaken at 37° C. for 24 h, HPLC-UV). In kind it is physicochemical. The following applies: thermodynamic from solid, 800 rpm. As for the experimental part: 1-2 mg of a test sample was taken and placed in a semi-automatic filter vial, and 450 μL of purified water or FeSSIF simulated fluid (fed state simulated intestinal fluid) was added to give a supersaturated suspension. The sample was vortexed for at least 2 min. The vial was placed on a plate shaker and shaken at 37° C. at 800 rpm for 24 h. After centrifugal filtration, the sample was subjected to HPLC-UV linear quantitative analysis for concentration.
FeSSIF (fed state simulated intestinal fluid): an aqueous buffer solution comprising 0.282% (w/v) lecithin, 0.806% (w/v) sodium taurocholate, 0.865% (w/v) acetic acid, 1.52% (w/v) potassium chloride, with a pH of […]

A short description of data set [2]: Forced degradation experiment. Type of data set: physicochemical. As for the experimental part:
Control group: 20 mg of a sample was weighed out, a proper amount of diluent (acetonitrile:water=1:1, v/v) was added to dissolve the sample, and then the solution was brought to a volume of 100 mL with the diluent (acetonitrile:water=1:1, v/v). A proper amount of the solution was taken for analysis. Acidic degradation: 20 mg of the sample was weighed out, and 1 mL of a 1 M aqueous HCl solution was added. After sitting at room temperature for 24 h, the mixture was neutralized with 1 mL of a 1 M aqueous NaOH solution. The solution was brought to a volume of 100 mL with the diluent (acetonitrile:water=1:1, v/v). A proper amount of the solution was taken for analysis. Basic degradation: 20 mg of the sample was weighed out, and 1 mL of a 1 M aqueous NaOH solution was added. After sitting at room temperature for 24 h, the mixture was neutralized with 1 mL of a 1 M aqueous HCl solution. The solution was brought to a volume of 100 mL with the diluent (acetonitrile:water=1:1, v/v). A proper amount of the solution was taken for analysis. Oxidative degradation: 20 mg of the sample was weighed out, 1 mL of a 3% aqueous hydrogen peroxide solution was added, and the mixture was left at room temperature for 24 h. The solution was brought to a volume of 100 mL with the diluent (acetonitrile:water=1:1, v/v). A proper amount of the solution was taken for analysis.

Data set [3] can be described thus: Dynamic vapor sorption (DVS) hygroscopicity. In kind it is physicochemical. The settings on record: from the DVS patterns, 25° C. As for the experimental part:
1.4. Dynamic Vapor Sorption (DVS) Method of the Present Application
Instrument model: DVS Intrinsic instrument from SMS (Surface Measurement Systems) Inc.
Temperature: 25° C.; sample amount: 10-30 mg; protective gas and flow: N2, 200 mL/min; dm/dt: 0.002%/min; minimum dm/dt equilibration time: 10 min; maximum equilibration time: 180 min; RH range: 0% RH-95% RH-0% RH; RH gradient: 10% (90% RH-0% RH-90% RH), 5% (95% RH-90% RH and 90% RH-95% RH).

A short description of data set [4]: In vivo pharmacokinetic study after a single oral dose. The settings on record: dog; female beagle dogs, single oral dose 100 mg/kg at 1 h after feeding, plasma, mean. As for the experimental part:
This experiment was intended to evaluate the pharmacokinetic behavior of the compound after a single intragastric administration and to investigate bioavailability after intragastric administration. Two female beagle dogs were each given a single oral dose of the crystalline form I of the compound of formula (II) at 100 mg/kg at 1 h after feeding, and plasma samples were taken at 0.0833 (5 min), 0.25 (15 min), 0.5 (30 min), 1, 2, 4, 6, 8, 12, and 24 h after administration and assayed for the concentration of the test substance by LC-MS/MS.

The conditions of data set [5]: oral administration; cited from earlier work.
A further data set deals with breast cancer patients. The settings on record: intramuscular injection; cited from earlier work.
Setting [6] is: Vehicle: FeSSIF (fed state simulated intestinal fluid).

Values after ≈ are worked out from the molar mass of the structure shown.

Compound `CC/C(=C(/c1ccc(OCCNC/C=C/C(=O)N(C)C)nc1)c1[nH]c2ccccc2c1Cl)c1ccccc1.O=C(O)/C=C/C(=O)O` yielded a solubility at 24 h in data set [1] (setting [6]) of 1950 µg/mL.

In turn, `Br.CC/C(=C(/c1ccc(OCCNC/C=C/C(=O)N(C)C)nc1)c1[nH]c2ccccc2c1Cl)c1ccccc1` had a solubility at 24 h in data set [1] (setting [6]) of 1370 µg/mL.

As to `CC/C(=C(/c1ccc(OCCNC/C=C/C(=O)N(C)C)nc1)c1[nH]c2ccccc2c1Cl)c1ccccc1`, the solubility at 24 h in data set [1] (purified water, Vehicle: Water) was below 0.8 µg/mL; in data set [1] (setting [6]), 316 µg/mL (≈ 597 µM).

On to `CC/C(=C(/c1ccc(OCCNC/C=C/C(=O)N(C)C)nc1)c1[nH]c2ccccc2c1Cl)c1ccccc1.Cl` [listing 1 of 2 here], for which the Total impurities in data set [2] (Acidic degradation: 1 M aqueous HCl, room temperature, 24 h, listed as crystalline form I of the compound of formula (II)) was 0.34%; in data set [2] (Basic degradation: 1 M aqueous NaOH, room temperature, 24 h, listed as crystalline form I of the compound of formula (II)), 0.35%; in data set [2] (Not degraded (control group, dissolved in acetonitrile:water 1:1), listed as crystalline form I of the compound of formula (II)), 0.34%; in data set [2] (Oxidative degradation: 3% aqueous hydrogen peroxide, room temperature, 24 h, listed as crystalline form I of the compound of formula (II)) it was 0.92%. Also, in data set [3], the Hygroscopicity entry is given as “lower hygroscopicity than the amorphous form”. The solubility at 24 h in data set [1] (purified water, Vehicle: Water) was 237 µg/mL; in data set [1] (setting [6]), 1900 µg/mL. In data set [4], this compound registered an AUC(0-t) of 229 µM·h. The compound further came in with a Cmax in data set [4] of 14 µM. For the same compound, in data set [4], the Tmax came to 6 h. Moreover, the half-life in data set [4] was 894 min.

With `CC/C(=C(/c1ccc(OCCNC/C=C/C(=O)N(C)C)nc1)c1[nH]c2ccccc2c1Cl)c1ccccc1.Cl` [listing 2 of 2 here], the Total impurities in data set [2] (Acidic degradation: 1 M aqueous HCl, room temperature, 24 h) is listed as 0.56%; in data set [2] (Basic degradation: 1 M aqueous NaOH, room temperature, 24 h), 0.54%; in data set [2] (Not degraded (control group, dissolved in acetonitrile:water 1:1)), 0.60%; in data set [2] (Oxidative degradation: 3% aqueous hydrogen peroxide, room temperature, 24 h), 3.5%.

On to `C[C@]12CC[C@@H]3c4ccc(O)cc4C[C@@H](CCCCCCCCC[S+]([O-])CCCC(F)(F)C(F)(F)F)[C@H]3[C@@H]1CC[C@@H]2O` (stereo partly drawn) [fulvestrant], for which the Bioavailability entry in data set [5] is listed as “zero”. In the data set on breast cancer patients, the Clinical response rate result is given as “about 50%”.

These data come from patent publication US20240043401A1, “SALT FORM OF TETRA-SUBSTITUTED OLEFIN COMPOUND, CRYSTAL, AND PREPARATION METHOD THEREFOR” (CHIA TAI TIANQING PHARMACEUTICAL GROUP CO., LTD., priority 2020, published 2024).
